The values that follow come from patent publication US20250264483A1, “IDENTIFICATION OF PROTHROMBOTIC CONDITIONS” (Sydney Local Health District, priority 2020, published 2025).

For data set [1], the system named is healthy donor platelets. Put plainly: Procoagulant platelet flow cytometry assay, healthy donor whole blood with APS patient plasma. The format is cell-based, human. The settings on record: for Average fold-change in procoagulant platelets: APS patient plasma. Here is the method: (§1) The GSAO-based whole blood PP flow cytometry assay established by the inventors^4 was modified to incorporate patient plasma. Citrated whole blood (13 μL) was incubated with and without agonists, unfractionated heparin (Pfizer) and plasma (5 μL) for 10 minutes with final concentrations of 2.5 mM Gly-Pro-Arg-Pro peptide (Sigma-Aldrich) and 2.5 mM calcium chloride. […] In some experiments, blood was pre-treated with 10 μg/mL IV.3 (StemCell Technologies), a monoclonal antibody against FcγRIIa, for 15 minutes prior to the reaction. Samples were incubated with antibodies to CD45, CD41a, CD62P—or isotype control, and GSAO or GSCA, and fixed before analysis on a BD LSRFortessa X-20.
Citrated whole blood (13 μL) was incubated with platelet agonists and plasma (5 μL) from healthy donors or patients, for 10 minutes with final concentrations of 2.5 mM Gly-Pro-Arg-Pro peptide (Sigma-Aldrich) and 2.5 mM calcium chloride in a 50 μL reaction. […] The reaction was stopped by further dilution with HBSS, followed by staining with antibodies to CD45 (HI30) (StemCell Technologies), CD41a (HIP8) (BD Biosciences), CD62P (Psel.KO2.3) (eBioscience)—or isotype control (eBioscience), and GSAO or control compound GSCA (4-(N—(S-glutathionylacetyl)amino)benzoic acid). Then, samples were fixed with PAMFix (Platelet Solutions Ltd), centrifuged and resuspended, prior to analysis on a BD LSRFortessa X-20 or BD FACSCanto II cytometer with acquisition of 10000 platelet events. Statistical analyses were performed using GraphPad Prism 9, with statistical significance set at p<0.05.
On the technique in general: Flow cytometry measures light scatter and fluorescence of single cells or particles in a stream.

Data set [2] relates to healthy donor platelets. As to the kind of experiment: Procoagulant platelet flow cytometry assay (GSAO+/CD62P+), healthy donor whole blood with HIT patient plasma. The format is cell-based, human. The settings on record: for difference in proportion of PP with HIT+ plasma compared to HIT−, no plasma or autologous plasma: agonist alone, absence of exogenous heparin (SFLLRN 5 μM, ADP 20 μM, CRP-xL 2 μg/mL; FIG. 2). Here is the method: as §1
Representative flow cytometry plots from a single donor comparing no plasma with HIT− or HIT+ plasma indicate that addition of HIT+ plasma altered the sub-population profile of the platelets with a marked increase in procoagulant (GSAO+/CD62P+) platelets (FIG. 1A). […] There was also a smaller but statistically significant increase seen with HIT− plasma compared to no plasma (53.63±6.82 vs 42.05±4.24, P<0.05) (FIG. 1B).

The conditions of data set [3]: cited from earlier work.
Data set [4] concerns healthy donor platelets. As to the kind of experiment: Procoagulant platelet flow cytometry assay, healthy donor whole blood with VITT patient plasma. The format is cell-based, human. The settings on record: for proportion of procoagulant platelets: mean±SD.
[5] abbreviates: HIT+ plasma, agonist, no heparin (FIGS. 3B, D), mean±SEM.
[6] abbreviates: HIT+ plasma, combined sample + agonist + therapeutic concentration heparin / high heparin control sample.
Where [7] appears, read: HIT+ plasma, combined sample + agonist + therapeutic concentration heparin / no heparin control sample.

With “thrombin: bovine thrombin (Sigma-Aldrich), platelet agonist”, the results for the “Average fold-change in procoagulant platelets” value (“Average fold-change” for short) with healthy donor platelets [1] (combined sample / healthy control sample) and in the data set on healthy donor platelets [1] (combined sample / healthy control sample + autologous plasma) were 5.7 fold and 2.1 fold, respectively. Also, the “increase in procoagulant platelet proportions relative to no plasma” value in the data set on healthy donor platelets [1] (autologous plasma, thrombin stimulation (FIG. 13B)) is listed as 0.3-5.5%. Also, in the data set on healthy donor platelets [1] (plasma from an APS patient collected during plasma exchange, thrombin 1 U/mL, CRP-xL 2 μg/mL (FIG. 14)), the “increase in procoagulant platelet response” value came to 4.5 fold. In addition, the “proportion of PP” value is on record as 18.86±3.94 in the data set on healthy donor platelets [2] (HIT+ plasma, absence of heparin (FIG. 6A, D), thrombin 1 U/mL, CRP-xL 2 μg/mL); 19.55±4.16 in the data set with healthy donor platelets [2] (HIT− plasma, absence of heparin (FIG. 6A, D), thrombin 1 U/mL, CRP-xL 2 μg/mL); 4.16±0.24 in the data set with healthy donor platelets [2] (no plasma, absence of heparin (FIG. 6A, D), thrombin 1 U/mL, CRP-xL 2 μg/mL).

On to `Nc1ncnc2c1ncn2[C@@H]1O[C@H](COP(=O)(O)OP(=O)(O)O)[C@@H](O)[C@H]1O` [ADP, adenosine diphosphate], for which the “proportion of PP” value with healthy donor platelets [2] (setting [5]) was 5.66±0.79. The “Average fold-change” value turned out to be 5.5 fold with healthy donor platelets [2] (setting [6]) and 4.4 fold with healthy donor platelets [2] (setting [7]). Also, the “difference in proportion of PP with HIT+ plasma compared to HIT−, no plasma or autologous plasma” value with healthy donor platelets [2] is “no difference”.

For the compound low-molecular-weight heparin, the “occurrence of HIT in patients receiving the drug” value in data set [3] is recorded as 0.2%.

As to SFLLRN, the “change in procoagulant response between patient and autologous plasma” value in the data set on healthy donor platelets [1] (APS plasma vs autologous plasma (FIG. 13A, C)) was “No significant change”. In the data set on healthy donor platelets [2] (setting [5]), the “proportion of PP” value stood at 11.19±3.23. The “Average fold-change” value in the data set with healthy donor platelets [2] (setting [6]) was found to be 8.5 fold; with healthy donor platelets [2] (setting [7]), 3.7 fold. Moreover, the “difference in proportion of PP with HIT+ plasma compared to HIT−, no plasma or autologous plasma” value with healthy donor platelets [2] is reported as “no difference”. For the same compound, the PP proportion in the data set on healthy donor platelets [4] (SFLLRN 5 μM, ELISA false positive plasma (FIG. 9C)) came to 3.93±0.78%; in the data set with healthy donor platelets [4] (SFLLRN 5 μM, VITT-negative plasma (FIG. 9C)), 4.50±2.09%; with healthy donor platelets [4] (SFLLRN 5 μM, healthy donor blood, no plasma (FIG. 9C)), 3.86±0.97%; with healthy donor platelets [4] (SFLLRN 5 μM, plasma from healthy individuals (FIG. 9C)), 3.57±1.36%. Also, the “proportion of procoagulant platelets” value in the data set with healthy donor platelets [4] (SFLLRN 5 μM, HIT-like VITT (heparin-enhancing VITT) plasma (FIG. 8B)) is recorded as 23.60±8.768; in the data set with healthy donor platelets [4] (SFLLRN 5 μM, VITT negative plasma (FIG. 8B)), 2.988±0.9564; in the data set with healthy donor platelets [4] (SFLLRN 5 μM, VITT plasma (FIG. 8B)), 16.34±13.74; with healthy donor platelets [4] (SFLLRN 5 μM, no plasma (FIG. 8B)) it was 3.194±0.8185.

As for heparin, in data set [3], the “occurrence of HIT in patients receiving the drug” value is “up to 3%”. Moreover, the “proportion of PP” value in the data set with healthy donor platelets [2] (HIT+ plasma, ADP 20 μM, high-dose heparin 100 U/mL) worked out at 5.16±0.52; with healthy donor platelets [2] (HIT+ plasma, ADP 20 μM, therapeutic-concentration heparin 0.5 U/mL), 25.22±5.94; in the data set with healthy donor platelets [2] (HIT+ plasma, CRP-xL 2 μg/mL, high-dose heparin 100 U/mL) it was 11.70±2.63; in the data set with healthy donor platelets [2] (HIT+ plasma, CRP-xL 2 μg/mL, therapeutic-concentration heparin 0.5 U/mL) it was 26.87±3.58; with healthy donor platelets [2] (HIT+ plasma, SFLLRN 5 μM, high-dose heparin 100 U/mL) it was 4.39±0.35; in the data set with healthy donor platelets [2] (HIT+ plasma, SFLLRN 5 μM, therapeutic-concentration heparin 0.5 U/mL), 36.53±7.50. In addition, the “difference in PP formation in response to SFLLRN, ADP or CRP-xL” value in the data set with healthy donor platelets [2] (HIT− plasma, therapeutic or high heparin concentrations (FIGS. 3A, C, E)) is reported as “no difference”. Also, the “difference in PP proportion compared to basal levels without exogenous plasma” value with healthy donor platelets [2] (heparin 0.5 U/mL or 100 U/mL, HIT+ or HIT− plasma, no platelet agonist (FIG. 2)) is “no differences”. The PP response was determined as 3.48±1.02% in the data set on healthy donor platelets [4] (high-dose heparin 100 U/mL, HIT plasma, SFLLRN 5 μM (FIG. 10B)); 3.54±1.41% in the data set on healthy donor platelets [4] (high-dose heparin 100 U/mL, VITT plasma, SFLLRN 5 μM); 12.48±12.84% in the data set with healthy donor platelets [4] (low-dose heparin 0.5 U/mL, VITT plasma, SFLLRN 5 μM (FIG. 10A)).
